Assays:
Format in all cases: in vivo
Phaedon cochleariae = Phaedon cochleariae spray test; details: for mortality at 500 g/ha: Phaedon cochleariae, in Brassica rapa, foliar, 168 h, read-out: mortality in %
Description: Phaedon cochleariae—Spray Test
(§1) To produce a suitable preparation of active compound, 1 part by weight of active compound is mixed with the stated amount of solvents and is diluted with water, containing an emulsifier concentration of 1000 ppm, to the desired concentration. Further test concentrations are prepared by dilution with emulsifier containing water.
Chinese cabbage (Brassica pekinensis) leaf disks are sprayed with a preparation of the active ingredient of the desired concentration. Once dry, the leaf disks are infested with mustard beetle larvae (Phaedon cochleariae).
After 7 days mortality in % is determined. 100% means all beetle larvae have been killed and 0% means none of the beetle larvae have been killed.

Tetranychus urticae = Tetranychus urticae spray test OP-resistant; details: foliar, 144 h, after 6 days, French bean leaf disks
Description: Tetranychus urticae—Spray Test OP-Resistant
as §1
French bean (Phaseolus vulgaris) leaf disks infected with all instars of the two spotted spidermite (Tetranychus urticae), are sprayed with a preparation of the active ingredient of the desired concentration.
After 6 days mortality in % is determined. 100% means all spider mites have been killed and 0% means none of the spider mites have been killed.

Spodoptera frugiperda = Spodoptera frugiperda spray test; details: 168 h, after 7 days, maize leaf sections, larvae
Description: Spodoptera frugiperda—Spray Test
as §1
Maize (Zea mays) leaf sections are sprayed with a preparation of the active ingredient of the desired concentration. Once dry, the leaf sections are infested with fall armyworm larvae (Spodoptera frugiperda).
After 7 days mortality in % is determined. 100% means all caterpillars have been killed and 0% means none of the caterpillars have been killed.

Euschistus heros = Euschistus heros spray test (feeding control); details: 100 ppm; after 3 days; kidney bean plants, larvae
Description: Euschistus heros—Spray Test
(§2) To produce a suitable preparation of active compound, 1 part by weight of active compound is mixed with the stated amount of solvent and is diluted with water to the desired concentration. Further test concentrations are prepared by dilution with water Ammonium salt and/or penetration enhancer (rapeseed oil methyl esters) in a dosage of 1000 ppm are added to the desired concentration if necessary.
Kidney bean plants (Phaseolus vulgaris) are treated by being sprayed with the preparation of the active compound of the desired concentration and are infested with 10 larvae per plant of the brown stink bug (Euschistus heros).
(§3) After 3 days feeding control in % is determined. 100% means there is no feeding damage visible and 0% means the plant damage corresponds to that of the untreated control plants.

Meloidogyne incognita = Meloidogyne incognita test; details: 20 ppm; after 14 days; salad seedlings, eggs and larvae
Description: Meloidogyne incognita—Test
To produce a suitable preparation of active compound, 1 part by weight of active compound is mixed with the stated amount of solvent, and the concentrate is diluted with water to the desired concentration.
Vessels are filled with sand, a solution of the active ingredient, a suspension containing eggs and larvae of the southern root-knot nematode (Meloidogyne incognita) and salad seeds. The salad seeds germinate and the seedlings grow. Galls develop in the roots.
After 14 days the nematicidal activity is determined on the basis of the percentage of gall formation. 100% means no galls were found and 0% means the number of galls found on the roots of the treated plants was equal to that in untreated control plants.

Nilaparvata lugens = Nilaparvata lugens spray test; details: 96 h, after 4 days, rice plants, larvae
Description: Nilaparvata lugens—Spray Test
as §1, with “water. Ammonium salt and/or penetration enhancer in a dosage of 1000 ppm are added to the desired concentration if necessary.” for “water.”
Rice plants (Oryza sativa) are treated by being sprayed with the desired concentration of the active compound and are infested with larvae of the brown planthopper (Nilaparvata lugens).
After 4 days mortality in % is determined. 100% means all planthoppers have been killed and 0% means none of the planthoppers have been killed.

Nezara viridula [1] = assay: Nezara viridula spray test (barley plants, mortality); details: for mortality at 20 g/ha / mortality at 100 g/ha / mortality at 500 g/ha: Nezara viridula, 96 h, read-out: mortality in %
Description: (§4) Nezara viridula—Spray Test
To produce a suitable preparation of active compound, 1 part by weight of active compound is mixed with the stated amount of solvent, and the concentrate is diluted with water, containing an emulsifier concentration of 1000 ppm, to the desired concentration Ammonium salt and/or penetration enhancer in a dosage of 1000 ppm are added to the desired concentration if necessary.
Barley plants (Hordeum vulgare) infested with larvae of the southern green stink bug (Nezara viridula) are sprayed with a test solution containing the desired concentration of the active ingredient.
After 4 days, mortality in % is determined. 100% means all the stink bugs have been killed; 0% means none of the stink bugs have been killed.

Diabrotica balteata = Diabrotica balteata spray test; details: 160 μg/well; after 7 days; wheat seeds, larvae of banded cucumber beetle
Description: Diabrotica balteata-Spray Test
as §1, with “solvent,” for “solvents”, “and the concentrate” for “and”
Soaked wheat seeds (Triticum aestivum) are placed in a multiple well plate filled with agar and some water and are incubated for 1 day to germinate (5 seeds per well). The germinated wheat seeds are sprayed with a test solution containing the desired concentration of the active ingredient. Afterwards each unit is infected with 10-20 larvae of the banded cucumber beetle (Diabrotica balteata).
After 7 days efficacy in % is determined. 100% means all the seedlings have grown up like in the untreated, uninfected control; 0% means none of the seedlings have grown.

Nezara viridula [2] = assay: Nezara viridula spray test (cotton plants, feeding control); details: 100 ppm, after 3 days, larvae
Description: as §4, §2
Cotton plants (Gossypium hirsutum) are treated by being sprayed with the preparation of the active compound of the desired concentration and are infested with 10 larvae per plant of the green plant bug (Nezara viridula).
as §3

Compound	mortality at 500 g/ha (Phaedon cochleariae)	nematicidal activity (% reduction of galls vs untreated control) (Meloidogyne incognita)	mortality at 100 g/ha (Nezara viridula [1])	mortality at 500 g/ha (Nezara viridula [1])	efficacy in % (Diabrotica balteata)	further results
O=C(Nc1nc(-c2c(F)cc(C(F)(F)F)cc2F)ns1)c1cccnc1C(F)(F)F [Compound I-1-1]	100%	–	–	–	–	mortality at 500 g/ha (Tetranychus urticae): 90%
O=C(Nc1nc(-c2c(F)ccc(C(F)(F)F)c2F)ns1)c1cccnc1C(F)(F)F [Compound I-1-2, N-{3-[2,6-difluoro-3-(trifluoromethyl)phenyl]-1,2,4-thiadiazol-5-yl}-2-(trifluoromethyl)nicotinamide]	100%	90%	100%	100%	–	mortality at 500 g/ha (Spodoptera frugiperda): ≥ 83%; feeding control in % (Euschistus heros): 85%; mortality at 500 g/ha (Nilaparvata lugens): ≥ 90%; mortality at 20 g/ha (Nezara viridula [1]): 100%; mortality at 500 g/ha (Tetranychus urticae): 90%
O=C(Nc1nc(-c2c(F)ccc(C(F)(F)F)c2F)ns1)c1ccccc1C(F)(F)F [Compound I-1-3, N-{3-[2,6-difluoro-3-(trifluoromethyl)phenyl]-1,2,4-thiadiazol-5-yl}-2-(trifluoromethyl)benzamide]	100%	–	100%	100%	–	–
O=C(Nc1nc(-c2c(F)ccc(Cl)c2F)ns1)c1cccnc1C(F)(F)F [Compound I-1-6, N-[3-(3-chloro-2,6-difluorophenyl)-1,2,4-thiadiazol-5-yl]-2-(trifluoromethyl)nicotinamide]	100%	–	100%	100%	–	mortality at 500 g/ha (Spodoptera frugiperda): ≥ 83%; mortality at 20 g/ha (Nezara viridula [1]): 100%; mortality at 500 g/ha (Tetranychus urticae): 90%
O=C(Nc1nc(-c2cc(F)cc(F)c2F)ns1)c1ccccc1Cl [Compound I-1-21]	–	–	–	–	–	mortality in % (Nezara viridula [1]; 500 g/ha, after 4 days, barley plants, larvae): 80%
O=C(Nc1nc(-c2c(F)ccc(F)c2F)ns1)c1cccnc1C(F)(F)F [Compound I-1-24]	–	90%	–	–	100%	–
O=C(Nc1nc(-c2c(F)ccc(F)c2F)ns1)c1cccnc1C(F)F [Compound I-1-27]	–	–	–	–	–	feeding control in % (Nezara viridula [2]): 100%
O=C(Nc1nc(-c2c(F)ccc(F)c2F)ns1)c1ccccc1Cl [Compound I-1-30]	–	90%	–	–	100%	–
O=C(Nc1nc(-c2c(F)c(F)cc(F)c2F)ns1)c1cccnc1C(F)(F)F [Compound I-1-33]	–	90%	–	–	100%	feeding control in % (Nezara viridula [2]): 100%; feeding control in % (Euschistus heros): 100%
O=C(Nc1nc(-c2c(F)c(F)cc(F)c2F)ns1)c1ccccc1C(F)(F)F [Compound I-1-34]	–	–	–	–	100%	–
O=C(Nc1nc(-c2c(F)c(F)cc(F)c2F)ns1)c1nccnc1C(F)(F)F [Compound I-1-35]	–	90%	–	–	–	–
O=C(Nc1nc(-c2cc(Cl)cc(F)c2F)ns1)c1c(F)cccc1F [Compound I-1-46]	–	–	–	–	–	mortality in % (Phaedon cochleariae; 500 g/ha, after 7 days, Chinese cabbage leaf disks, larvae): 83%
O=C(Nc1nc(-c2c(F)ccc(Br)c2F)ns1)c1cccnc1C(F)(F)F [Compound I-1-51, N-[3-(3-bromo-2,6-difluorophenyl)-1,2,4-thiadiazol-5-yl]-2-(trifluoromethyl)nicotinamide]	100%	–	100%	100%	100%	mortality at 500 g/ha (Spodoptera frugiperda): ≥ 83%; feeding control in % (Nezara viridula [2]): 100%; mortality at 20 g/ha (Nezara viridula [1]): 100%; mortality at 500 g/ha (Tetranychus urticae): 90%
Cc1ccc(F)c(-c2nsc(NC(=O)c3cccnc3C(F)(F)F)n2)c1F [Compound I-1-52, N-[3-(2,6-difluoro-3-methylphenyl)-1,2,4-thiadiazol-5-yl]-2-(trifluoromethyl)nicotinamide]	100%	–	100%	100%	–	–

Reference: patent publication US20190382358A1, “HETEROCYCLIC COMPOUNDS AS PESTICIDES” (Bayer CropScience Aktiengesellschaft, priority 2016, published 2019)
